Experimental data as given in ChEMBL document CHEMBL3885861, “Open TG-GATES”.

Species: Rattus norvegicus
Test: Open TG-GATES - Regimen: Daily Repeat
Type: toxicity, organism-based, Sprague-Dawley
Set-up: regimen Daily Repeat, gender Male, age 6 weeks
Details: in vivo, po, route gavage; for TP / gamma-GTP / ALP / ALT / AST / BUN / CRE / Cl / DBIL / GLC / IP / K / LDH / Na / PL / RALB / TBIL / TC / TG / Ca: tissue Plasma; for APTT / Bas / Eos / Fbg / Hb / Ht / Lym / MCH / MCHC / MCV / Mono / Neu / PT / Plat / RBC / Ret / WBC: tissue Blood; for KIDNEY_L / KIDNEY_R / KIDNEY_TOTAL: tissue Kidney; for LIVER: tissue Liver
[1] = 300 mg/kg, […], dose level Middle, time 28 day
[2] = 1000 mg/kg, 72 h, dose level High, time 3 day
[3] = 1000 mg/kg, […], dose level High, time 7 day
[4] = 1000 mg/kg, […], dose level High, time 14 day
[5] = 1000 mg/kg, […], dose level High, time 28 day

`COC(=O)C1=C(C)NC(C)=C(C(=O)OC)C1c1ccccc1[N+](=O)[O-]` [NIFEDIPINE] showed a TP [1] of 6.1 g/dL, a gamma-GTP [1] of 1 IU/L and a TERMINAL_BW [2] of 202 g. For the same compound, the APTT [2] was 21.7 s, the Bas [2] was 0% and the Eos [2] was 0.8%. For the same compound, the Fbg [2] was 252.6 mg/dL, the Hb [2] was 14 g/dL and the Ht [2] was 42.2%. For the same compound, the Lym [2] was 76.8%, the MCH [2] was 20.5 pg and the MCHC [2] was 33.2%. It also gave an MCV [2] of 61.8 fL, a Mono [2] of 3.2% and a Neu [2] of 18.2%. The PT [2] was 14.1 s, the Plat [2] was 134.4 x10_4/uL and the RBC [2] was 683.2 x10_4/ul. It also gave a Ret [2] of 7.3%, a WBC [2] of 97.2 x10_2/uL and a KIDNEY_L [2] of 0.9 g. It also gave a KIDNEY_R [2] of 0.9 g, a KIDNEY_TOTAL [2] of 1.7 g and an ALP [2] of 1290.2 IU/L. The ALT [2] was 41.6 IU/L, the AST [2] was 67.6 IU/L and the BUN [2] was 14 mg/dL. The CRE [2] was 0.2 mg/dL, the Cl [2] was 107.8 meq/L and the DBIL [2] was 0.016 mg/dL. For the same compound, the GLC [2] was 153 mg/dL, the IP [2] was 6.1 mg/dL and the K [2] was 4.1 meq/L. The LDH [2] was 69.6 IU/L, the Na [2] was 143.6 meq/L and the PL [2] was 123 mg/dL. For the same compound, the RALB [2] was 2.5 g/dL, the TBIL [2] was 0.032 mg/dL and the TC [2] was 67.2 mg/dL. The TG [2] was 54 mg/dL, the TP [2] was 5.3 g/dL and the gamma-GTP [2] was 0.8 IU/L. It also gave a TERMINAL_BW [3] of 238.1 g, a TERMINAL_BW [4] of 309.6 g and a TERMINAL_BW [5] of 388.3 g. The APTT [3] was 16.8 s, the Bas [3] was 0.4% and the Eos [3] was 0.8%. The Fbg [3] was 253.4 mg/dL, the Hb [3] was 14.1 g/dL and the Ht [3] was 42.6%. The Lym [3] was 71.4%, the MCH [3] was 20.2 pg and the MCHC [3] was 33.1%. The MCV [3] was 61 fL, the Mono [3] was 2.8% and the Neu [3] was 23.8%. The PT [3] was 14.2 s, the Plat [3] was 142.6 x10_4/uL and the RBC [3] was 701.2 x10_4/ul. It also gave a Ret [3] of 5.9%, a WBC [3] of 121.8 x10_2/uL and an APTT [4] of 21.1 s. For the same compound, the Bas [4] was 0.4%, the Eos [4] was 0.6% and the Fbg [4] was 267.4 mg/dL. The Hb [4] was 14.3 g/dL, the Ht [4] was 42.8% and the Lym [4] was 73.8%. It also gave an MCH [4] of 20.6 pg, an MCHC [4] of 33.5% and an MCV [4] of 61.4 fL. The Mono [4] was 3%, the Neu [4] was 21.4% and the PT [4] was 13.8 s. It also gave a Plat [4] of 120.3 x10_4/uL, an RBC [4] of 697.2 x10_4/ul and a Ret [4] of 5.8%. It also gave a WBC [4] of 117.1 x10_2/uL, an APTT [5] of 21.7 s and a Bas [5] of 0%. For the same compound, the Eos [5] was 0.8%, the Fbg [5] was 252.6 mg/dL and the Hb [5] was 14 g/dL. The Ht [5] was 42.2%, the Lym [5] was 76.8% and the MCH [5] was 20.5 pg. For the same compound, the MCHC [5] was 33.2%, the MCV [5] was 61.8 fL and the Mono [5] was 3.2%. It also gave a Neu [5] of 18.2%, a PT [5] of 14.1 s and a Plat [5] of 134.4 x10_4/uL. For the same compound, the RBC [5] was 683.2 x10_4/ul, the Ret [5] was 7.3% and the WBC [5] was 97.2 x10_2/uL. It also gave a KIDNEY_L [3] of 1 g, a KIDNEY_R [3] of 0.9 g and a KIDNEY_TOTAL [3] of 1.9 g. The KIDNEY_L [4] was 1.2 g, the KIDNEY_R [4] was 1.2 g and the KIDNEY_TOTAL [4] was 2.4 g. For the same compound, the KIDNEY_L [5] was 1.4 g, the KIDNEY_R [5] was 1.3 g and the KIDNEY_TOTAL [5] was 2.7 g. The LIVER [3] was 12.1 g, the LIVER [4] was 15.5 g and the LIVER [5] was 17.5 g. It also gave an ALP [3] of 1072.4 IU/L, an ALT [3] of 40.4 IU/L and an AST [3] of 68.2 IU/L. For the same compound, the BUN [3] was 15 mg/dL, the CRE [3] was 0.2 mg/dL and the Cl [3] was 105.8 meq/L. For the same compound, the DBIL [3] was 0.016 mg/dL, the GLC [3] was 155.6 mg/dL and the IP [3] was 6.4 mg/dL. For the same compound, the K [3] was 3.9 meq/L, the LDH [3] was 86 IU/L and the Na [3] was 144.2 meq/L. For the same compound, the PL [3] was 129 mg/dL, the RALB [3] was 2.7 g/dL and the TBIL [3] was 0.028 mg/dL. For the same compound, the TC [3] was 68.8 mg/dL, the TG [3] was 70.6 mg/dL and the TP [3] was 5.7 g/dL. The gamma-GTP [3] was 1 IU/L, the ALP [4] was 1620.8 IU/L and the ALT [4] was 41.6 IU/L. The AST [4] was 66.6 IU/L, the BUN [4] was 18.6 mg/dL and the CRE [4] was 0.2 mg/dL. It also gave a Ca [4] of 11 mg/dL, a Cl [4] of 104.2 meq/L and a DBIL [4] of 0.012 mg/dL. It also gave a GLC [4] of 172.8 mg/dL, an IP [4] of 7.3 mg/dL and a K [4] of 4 meq/L. The LDH [4] was 51 IU/L, the Na [4] was 143.4 meq/L and the PL [4] was 161 mg/dL. It also gave an RALB [4] of 2.8 g/dL, a TBIL [4] of 0.018 mg/dL and a TC [4] of 84.2 mg/dL. The TG [4] was 101.8 mg/dL, the TP [4] was 5.9 g/dL and the gamma-GTP [4] was 1 IU/L. For the same compound, the ALP [5] was 975.4 IU/L, the ALT [5] was 40.2 IU/L and the AST [5] was 64.4 IU/L. The BUN [5] was 18.2 mg/dL, the CRE [5] was 0.3 mg/dL and the Ca [5] was 10.3 mg/dL. The Cl [5] was 106.6 meq/L, the DBIL [5] was 0.012 mg/dL and the GLC [5] was 162.8 mg/dL. It also gave an IP [5] of 5.8 mg/dL, a K [5] of 3.7 meq/L and an LDH [5] of 62.8 IU/L. The Na [5] was 144.4 meq/L, the PL [5] was 144 mg/dL and the RALB [5] was 2.7 g/dL. For the same compound, the TBIL [5] was 0.028 mg/dL, the TC [5] was 73.6 mg/dL and the TG [5] was 115.4 mg/dL. The TP [5] was 6 g/dL and the gamma-GTP [5] was 1 IU/L.
